{"source": "patent US20140162309A1", "about": "“Arsenical Fluorescent Agents and Assays” (priority 2010, published 2014)", "assay": "Fluorimetric response of arsenical dye upon introduction of TSH2 (liquid-liquid method)", "description": "When unbound, FlAsH-EDT2 is virtually non-fluorescent. Upon binding of four sulfur atoms, free rotation about the As—C bond is restricted, and the dye becomes brightly fluorescent. Since this visualization method labels proteins inside of cells with low background fluorescence, we hypothesized that this molecular sensor could detect the parasite metabolite without interference from other thiols present in biological fluids. The binding of two molecules of TSH2 should prevent the free rotation about the As—C bond in FlAsH, causing a fluorimetric response.\nFlAsH-EDT2 was virtually non-fluorescent, but upon introduction of TSH2, the fluorescence intensity rose. After approximately 10 minutes, the reaction reached saturation. […] The excitation and emission maxima for the conjugate were 505 nm and 527 nm respectively. This increase in fluorescence is readily detectable without a fluorimeter using a simple handheld black light such as those used at airport security checkpoints. This detection method could be implemented easily in a low technology, resource poor setting. We examined the limits of detection of the metabolite with FlAsH-EDT2. In our liquid-liquid method, a 10-fold excess of the metabolite is sufficient to observe a fluorimetric response within twenty minutes. Therefore, 2.5 nmol of the dye can be used to detect 25 nmol of the metabolite. While lower concentrations were detectable using a fluorimeter, the conjugation was too slow to be practical. However, FlAsH-EDT2 was not designed and is not optimized for this purpose, and it requires two molecules of TSH2 to bind in order to achieve the desired fluorescence response."}
{"smiles": "O=C(O)c1ccccc1-c1c2ccc(=O)c([As]3SCCS3)c-2oc2c([As]3SCCS3)c(O)ccc12", "note": "[FlAsH-EDT2]", "values": [{"measurement": "amount of metabolite detected (limit of detection)", "setting": "2.5 nmol of the dye, liquid-liquid method", "result": 25, "unit": "nmol"}, {"measurement": "time until the reaction reached saturation", "setting": "after introduction of TSH2", "result": "approximately 10 minutes"}, {"measurement": "excess of the metabolite sufficient to observe a fluorimetric response", "setting": "liquid-liquid method, response within twenty minutes", "result": 10, "unit": "fold"}, {"measurement": "fluorescence of unbound dye as % of the fluorescence of the FlAsH-(TSH2)2 conjugate", "setting": "normalized fluorescence measurements", "result": 0.4, "unit": "%"}]}
